Reference: patent publication US8779195B2, “Polyamine derivatives” (Nihon University, priority 2006, dated 2014)
Where a name gives a salt, the structure may show the parent alone. Read-outs that look alike come from different tables or passages of the source.

Legend:
[1] = cytotoxicity test, Alamar blue assay; type: cell-based; conditions: human, 24 hours exposure, read-out: IC50 (concentration at which respiratory activity is 50%)
Description: A cytotoxicity test was carried out with respect to TsPD, TsPDG, TsSPMG, BsPDG and Tosyl-SPM. Also in this test, Dansyl-SPM was used in a comparative example.
SH-SY5Y neuroblastoma cell line was purchased from the American Type Culture Collection. The cells were cultured in a D-MEM medium to which penicillin (100 U/ml), streptomycin (100 U/ml) and inactivated fetal bovine serum (Gibco) were added. The cells were maintained in a CO2 incubator at 37° C. and kept under the condition of 95% air and 5% CO2.
Undifferentiated SH-SY5Y cells were exposed to various concentrations of polyamine derivatives for 24 hours. An Alamar blue stock solution was transferred to a 96 well plate. The final assay volume was set at 100 μl/well and the final concentration of the Alamar blue was set at 10%. Six hours later, reduced Alamar blue was measured at a wavelength of 570 nm (FIG. 3). A survival rate (%) of the cells exposed to a polyamine derivative for 24 hours was expressed by a relative value of respiratory activity of the cells based on respiratory activity (100%) of mitochondria of the cells to which no drug is added.

[2] = tested on: Rat hippocampal primary culture cells; test: protective effect against nerve cell death induced by NMDA (lactate dehydrogenase release); type: cell-based; conditions: NMDA exposure one hour, LDH release after 24 hours
Description: (§1) Next, the protective effect of polyamine derivatives against nerve cell death due to excitotoxicity was investigated. Rat hippocampal primary culture cells were cultured for seven days and exposed to glutamate or NMDA for one hour. Nerve cell death induced in this manner was evaluated based on lactate dehydrogenase release after 24 hours as an index, significant cell death was observed. In addition, it was observed that nerve cell death caused by glutamate and NMDA exposure has concentration dependency.

[3] = tested on: mouse convulsion induced by NMDA; test: suppression of NMDA-induced convulsion in mouse (permeability through the blood brain barrier); type: in vivo
Description: Polyamine derivatives according to the present invention were evaluated for permeability through the blood brain barrier.
When 100 mg/kg NMDA was injected into a mouse abdominal cavity, convulsion is induced several minutes later. Then, the convulsion suppression effect of a polyamine derivative on mouse convulsion induced by NMDA was investigated.
When 0.5 mg/kg TsPDG and BsPDG were intravenously administered into a mouse 30 minutes before NMDA injection, the time of convulsion induced by NMDA was reduced by 43% and 39%. This reduction rate of convulsion time was equivalent to that (38%) when 10 mg/kg memantine intravenously administered.

[4] = molecular target: NMDA receptor NR1/NR2A (Rattus norvegicus, UniProt P35439+Q00959); test: two-electrode voltage clamp, NMDA receptor activity inhibition in Xenopus oocytes (NR1/NR2A); type: cell-based
Description: (§2) To confirm pharmacological function of TsPD, TsPDG, TsSPMG, BsPDG, and Tosyl-SPM synthesized above (synthesized by the method described in Patent Document 1 mentioned above), the effect of these compounds on NMDA receptor was measured by a two-electrode voltage clamp method.
(§3) This method can be carried out in accordance with the method of Masuko et al. (Masuko T. et al., Mol. Pharmacol. 55: 957-969 (1999); Masuko T. et al., Nuerosci. Lett. 371: 30-33 (2004); Masuko T. et al., Chem. Pharm. Bull. 53 (4) 444-447 (2005)). To the oocyte, cRNAs of an NR1 subunit and an NR2 subunit of NMDA receptor were injected in a ratio of 1:5 (NR1: 0.1 to 4 ng, NR2: 0.5 to 20 ng) to obtain the oocyte in which NMDA receptor was expressed.
(§4) The oocytes were cultured in a medium (96 mM NaCl, 2 mM KCl, 1 mM MgCl2, 1.8 mM CaCl2, 5 mM Na-HEPES, 2.5 mM sodium pyruvate, 50 μg/ml gentamicin, pH=7.5) at 19° C. for 1 to 3 days.
(§5) At the measurement date, K^+-BAPTA was injected in the oocytes and then, the activity of the receptors was measured by the two-electrode voltage clamp method (described later) using a recording buffer (96 mM NaCl, 2 mM KCl, 1.8 mM BaCl2, 10 mM Na-HEPES, pH=7.5).
(§6) Note that there is a single type of gene in NR1 and 4 types of genes, namely NR2A to NR2D, in NR2. There are NR1/NR2A, NR1/NR2B, NR1/NR2C and NR1/NR2D subtypes in NMDA receptor. However, NR1/NR2A and NR1/NR2B subtypes are conceivably present widely in the brain. Therefore, the activity inhibitory effects on these two types were measured in the following experiments.
(§7) The two-electrode voltage clamp method was carried out in accordance with the method of Williams et al. (Williams, K. et al., Mol. Pharmacol 38: 85-108). The current flowing through the entire membrane of the oocyte was measured by an amplifier CEZ-1250 (Nihon Kohden Corporation) for the two-electrode voltage clamp method. The electrode was filled with 3M potassium chloride and the resistance was set at 0.4 to 4 MΩ. In measurement, glutamate and glycine were added as NMDA agonists.
(§8) To the oocytes obtained by the aforementioned method, various concentrations of TsPD, TsPDG, TsSPMG, BsPDG and Tosyl-SPM were added. The activity inhibitory effect on […] subtypes was measured at a fixed voltage (Vh) of −70 mV (resting membrane potential).
(§9) As a comparative example, the same measurement is performed by use of Dansyl-SPM represented by the aforementioned formula (III).
(§10) Values obtained from 4 to 5 oocytes were averaged. The average value±S.E.M. was regarded as a measurement value.

[5] = tested on: Rat hippocampal primary culture cells; test: protective effect against nerve cell death induced by glutamate (lactate dehydrogenase release); type: cell-based; conditions: glutamate exposure one hour, LDH release after 24 hours
Description: as §1

[6] = molecular target: NMDA receptor NR1/NR2B (Rattus norvegicus, UniProt P35439+Q00960); test: two-electrode voltage clamp, NMDA receptor activity inhibition in Xenopus oocytes (NR1/NR2B); type: cell-based
Description: as §2, §3, §4, §5, §6, §7, §8, §9, §10

[7] = molecular target: NMDA receptor; conditions: read-out: IC50 of memantine (NMDA receptor); cited from earlier work
[8] = 0.5 mg/kg intravenously 30 minutes before 100 mg/kg NMDA i.p.
[9] = undifferentiated SH-SY5Y neuroblastoma cells
[10] = Xenopus oocytes, Vh -70 mV, glutamate and glycine as agonists, mean ± S.E.M. of 4 to 5 oocytes, read-out: IC50 NR1/NR2A
[11] = Xenopus oocytes, Vh -70 mV, glutamate and glycine as agonists, mean ± S.E.M. of 4 to 5 oocytes, read-out: IC50 NR1/NR2B

Chain of NMDA receptor NR1/NR2A (Q00959 23-1464, other chains not shown): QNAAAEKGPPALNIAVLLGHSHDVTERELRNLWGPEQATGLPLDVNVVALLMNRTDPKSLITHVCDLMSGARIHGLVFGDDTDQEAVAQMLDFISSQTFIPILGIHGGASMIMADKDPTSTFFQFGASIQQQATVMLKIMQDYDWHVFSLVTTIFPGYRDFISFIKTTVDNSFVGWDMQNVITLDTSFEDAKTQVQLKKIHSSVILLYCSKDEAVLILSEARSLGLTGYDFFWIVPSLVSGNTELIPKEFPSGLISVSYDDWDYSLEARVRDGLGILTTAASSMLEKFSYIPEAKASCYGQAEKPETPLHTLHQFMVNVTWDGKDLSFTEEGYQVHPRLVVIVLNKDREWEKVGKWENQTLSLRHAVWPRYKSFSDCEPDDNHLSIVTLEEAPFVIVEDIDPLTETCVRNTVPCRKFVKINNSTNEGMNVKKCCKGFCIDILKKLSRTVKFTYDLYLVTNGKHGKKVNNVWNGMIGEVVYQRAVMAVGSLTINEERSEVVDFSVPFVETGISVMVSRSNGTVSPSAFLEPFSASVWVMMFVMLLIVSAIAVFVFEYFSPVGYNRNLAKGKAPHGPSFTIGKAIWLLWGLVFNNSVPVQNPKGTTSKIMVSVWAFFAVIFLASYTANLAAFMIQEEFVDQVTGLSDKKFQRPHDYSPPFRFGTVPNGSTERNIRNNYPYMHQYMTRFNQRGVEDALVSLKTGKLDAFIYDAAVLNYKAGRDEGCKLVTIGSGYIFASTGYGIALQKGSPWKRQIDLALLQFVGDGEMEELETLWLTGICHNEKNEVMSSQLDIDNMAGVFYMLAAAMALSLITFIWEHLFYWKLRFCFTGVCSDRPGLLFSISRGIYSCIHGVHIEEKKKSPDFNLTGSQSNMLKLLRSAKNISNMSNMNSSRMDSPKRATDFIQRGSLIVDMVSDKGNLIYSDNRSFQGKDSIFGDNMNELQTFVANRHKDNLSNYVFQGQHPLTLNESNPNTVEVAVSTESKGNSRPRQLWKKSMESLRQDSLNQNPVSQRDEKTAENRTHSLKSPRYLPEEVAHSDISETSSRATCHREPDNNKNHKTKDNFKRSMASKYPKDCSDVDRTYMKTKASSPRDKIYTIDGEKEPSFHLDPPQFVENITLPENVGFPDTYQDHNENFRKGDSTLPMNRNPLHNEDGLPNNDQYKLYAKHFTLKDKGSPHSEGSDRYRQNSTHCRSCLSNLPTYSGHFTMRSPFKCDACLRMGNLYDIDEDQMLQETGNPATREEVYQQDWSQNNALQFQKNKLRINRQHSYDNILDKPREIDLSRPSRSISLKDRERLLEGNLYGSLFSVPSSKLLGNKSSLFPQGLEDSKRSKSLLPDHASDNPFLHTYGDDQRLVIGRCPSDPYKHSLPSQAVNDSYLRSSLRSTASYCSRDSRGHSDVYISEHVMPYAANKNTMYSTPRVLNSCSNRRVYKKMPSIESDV
Chain of NMDA receptor NR1/NR2B (Q00960 27-1482, other chains not shown): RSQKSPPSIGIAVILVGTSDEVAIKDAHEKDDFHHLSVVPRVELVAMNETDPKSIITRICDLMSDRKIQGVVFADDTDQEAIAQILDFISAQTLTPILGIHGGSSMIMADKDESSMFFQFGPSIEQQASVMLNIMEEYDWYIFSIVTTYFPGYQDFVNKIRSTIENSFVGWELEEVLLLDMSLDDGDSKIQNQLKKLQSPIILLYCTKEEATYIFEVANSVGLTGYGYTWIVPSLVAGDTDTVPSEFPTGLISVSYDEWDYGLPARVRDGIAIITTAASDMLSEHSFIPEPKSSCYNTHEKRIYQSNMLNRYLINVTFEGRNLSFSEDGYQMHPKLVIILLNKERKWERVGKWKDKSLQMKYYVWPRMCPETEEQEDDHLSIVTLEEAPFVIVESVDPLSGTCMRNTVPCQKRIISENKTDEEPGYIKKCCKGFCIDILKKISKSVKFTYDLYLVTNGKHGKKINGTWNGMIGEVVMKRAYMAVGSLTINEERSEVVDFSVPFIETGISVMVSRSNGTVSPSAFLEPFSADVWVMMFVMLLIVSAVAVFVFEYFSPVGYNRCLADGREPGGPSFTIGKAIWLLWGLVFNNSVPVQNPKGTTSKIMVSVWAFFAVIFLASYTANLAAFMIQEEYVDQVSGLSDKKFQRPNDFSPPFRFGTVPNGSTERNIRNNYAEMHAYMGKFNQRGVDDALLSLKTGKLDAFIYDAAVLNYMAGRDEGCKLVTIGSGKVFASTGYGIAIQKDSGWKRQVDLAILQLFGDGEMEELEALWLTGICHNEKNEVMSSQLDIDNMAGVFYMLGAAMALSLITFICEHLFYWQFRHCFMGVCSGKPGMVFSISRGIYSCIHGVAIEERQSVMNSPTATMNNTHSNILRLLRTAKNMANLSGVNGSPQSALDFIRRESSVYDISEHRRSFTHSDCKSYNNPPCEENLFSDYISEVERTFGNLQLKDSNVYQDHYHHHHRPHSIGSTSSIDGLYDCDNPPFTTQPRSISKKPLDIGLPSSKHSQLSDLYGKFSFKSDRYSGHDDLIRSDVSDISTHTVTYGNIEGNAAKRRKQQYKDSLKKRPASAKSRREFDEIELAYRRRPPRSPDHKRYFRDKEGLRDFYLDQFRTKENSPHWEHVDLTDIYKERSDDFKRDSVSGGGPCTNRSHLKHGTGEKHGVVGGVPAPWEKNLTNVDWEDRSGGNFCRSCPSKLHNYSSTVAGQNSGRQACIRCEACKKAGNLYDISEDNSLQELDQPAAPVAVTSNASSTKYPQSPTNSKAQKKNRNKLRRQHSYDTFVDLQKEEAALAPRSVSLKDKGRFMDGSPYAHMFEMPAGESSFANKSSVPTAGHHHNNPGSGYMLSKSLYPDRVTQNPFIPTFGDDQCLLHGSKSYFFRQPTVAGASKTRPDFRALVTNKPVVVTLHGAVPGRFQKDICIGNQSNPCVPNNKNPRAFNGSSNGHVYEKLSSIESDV

Cc1ccc(S(=O)(=O)NCCCCNCCCCNCCCCNC(=N)N)cc1 [TsPDG]
IC50 at 24 h ([1]; undifferentiated SH-SY5Y cells): 2870 ± 66 µM
suppression of nerve cell death induced by NMDA ([2]; 1 μM compound): completely suppressed
reduction of the time of convulsion induced by NMDA [3, 8]: 43%
IC50 [4]: 0.017 ± 0.002 µM
suppression of nerve cell death induced by glutamate ([5]; 1 μM compound): significantly suppressed
IC50 [6]: 0.027 ± 0.002 µM

CN(C)c1cccc2c(S(=O)(=O)NCCCNCCCCNCCCN)cccc12 [Dansyl-SPM, N^1-Dansyl-Spermine, reference compound]
IC50 at 24 h [1, 9]: 30 ± 1 µM
IC50 [4, 10]: 0.27 ± 0.03 µM
IC50 [6, 11]: 0.31 ± 0.03 µM

CCCCS(=O)(=O)NCCCCNCCCCNCCCCNC(=N)N [BsPDG]
IC50 at 24 h ([1]; undifferentiated SH-SY5Y cells): > 3000 µM
suppression of nerve cell death induced by NMDA ([2]; 1 μM compound): completely suppressed
reduction of the time of convulsion induced by NMDA [3, 8]: 39%
IC50 [4, 10]: 0.015 ± 0.001 µM
suppression of nerve cell death induced by glutamate ([5]; 1 μM compound): significantly suppressed
IC50 [6, 11]: 0.024 ± 0.003 µM

CC12CC3CC(C)(C1)CC(N)(C3)C2 [memantine, memantine hydrochloride, reference compound]
reduction of the time of convulsion induced by NMDA ([3]; 10 mg/kg intravenously): 38%
IC50 [7]: 1 µM

Cc1ccc(S(=O)(=O)NCCCNCCCCNCCCN)cc1 [Tosyl-SPM, N^1-Tosyl-Spermine, reference compound]
IC50 at 24 h [1, 9]: 336 ± 7 µM
IC50 [4, 10]: 0.35 ± 0.01 µM
IC50 [6, 11]: 0.4 ± 0.01 µM

Cc1ccc(S(=O)(=O)NCCCNCCCCNCCCNC(=N)N)cc1 [TsSPMG]
IC50 at 24 h ([1]; undifferentiated SH-SY5Y cells): 2640 ± 37 µM
IC50 [4, 10]: 0.32 ± 0.03 µM
IC50 [6, 11]: 0.37 ± 0.05 µM

Cc1ccc(S(=O)(=O)NCCCCNCCCCNCCCCN)cc1 [TsPD]
IC50 at 24 h ([1]; undifferentiated SH-SY5Y cells): 1830 ± 46 µM
suppression of nerve cell death induced by NMDA ([2]; 10 μM compound): completely suppressed
IC50 [4, 10]: 0.074 ± 0.003 µM
suppression of nerve cell death induced by glutamate ([5]; 10 μM compound): significantly suppressed
IC50 [6, 11]: 0.15 ± 0.001 µM
